Experimental data: patent US12435087B2, “Modulators of DCN-1 and methods of use thereof” (Cellarity, Inc., priority 2023, dated 2025)
pIC50: −log10 of the molar value. Read-outs that look alike come from different tables or passages of the source.

Biological target: DCN1 (DCUND1) protein PONY domain (Homo sapiens (Human), UniProt Q96GG9)
Test: TR-FRET assay (binding to DCN-1, displacement of FAM-labeled probe)
Settings: for IC50: TR FRET IC50 1 hr (nM)
How it was run: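 Compounds read at 1, 5 and 24 h, 0.1% final DMSO, by TR-FRET between terbium-streptavidin on biotinylated DCN1 PONY domain (E. coli) and a FAM-tagged non-covalent inhibitor probe. Two setups used, 5 nM protein with 20 nM labelled probe, or 0.31 nM protein with 100 nM labelled plus 800 nM unlabelled probe; buffer had TritonX and 200 mM NaCl. % activity relative to high (with probe) and low (without probe) controls.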

[1] = 24 hr after treatment with compound, read-out: TR FRET IC50 24 hr
[2] = 1 hr after treatment with compound
[3] = read-out: TR FRET IC50 1 hr, 1 hr after treatment with compound

Sequence of DCN1 (DCUND1) protein PONY domain (Q96GG9 60-248): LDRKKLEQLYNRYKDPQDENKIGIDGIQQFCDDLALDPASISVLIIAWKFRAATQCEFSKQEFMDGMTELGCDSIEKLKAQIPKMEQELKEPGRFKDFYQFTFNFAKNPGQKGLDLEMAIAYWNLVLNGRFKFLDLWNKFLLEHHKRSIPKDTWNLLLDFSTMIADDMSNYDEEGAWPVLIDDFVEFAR

| SMILES | pIC50 [1] | IC50 [2] | pIC50 [3] |
| --- | --- | --- | --- |
| C/C=C(\CN1CCN(C2COC2)CC1)C(=O)N(C)c1cccc([C@@H]2c3cnn(-c4ccccc4)c3N(CC)C(=O)[C@H]2NC(=O)c2csc(C(F)(F)F)n2)c1 [Compound I-301, N-((4R,5S)-7-ethyl-4-(3-((E)-N-methyl-2-((4-(oxetan-3-yl)piperazin-1-yl)methyl)but-2-enamido)phenyl)-6-oxo-1-phenyl-4,5,6,7-tetrahydro-1H-pyrazolo[3,4-b]pyridin-5-yl)-2-(trifluoromethyl)thiazole-4-carboxamide] | 6.00 to 6.70 | 1000 to 3000 nM | – |
| CCN1C(=O)[C@@H](NC(=O)c2cccc(C(F)(F)F)c2)[C@H](c2cccc(CNC/C=C/C(=O)OC(C)(C)C)c2)c2cnn(-c3ccccc3)c21 [Compound I-306, tert-butyl (E)-4-((3-((4R,5S)-7-ethyl-6-oxo-1-phenyl-5-(3-(trifluoromethyl)benzamido)-4,5,6,7-tetrahydro-1H-pyrazolo[3,4-b]pyridin-4-yl)benzyl)amino)but-2-enoate] | 6.00 to 6.70 | 1000 to 3000 nM | – |
| C=CC(=O)NCc1cccc([C@@H]2c3cnn(-c4ccccc4)c3N(CC)C(=O)[C@H]2NC(=O)c2cccc(C(F)(F)F)c2)c1 (racemic) [Compound I-111] | 5.52 to 6.00 | 1000 to 3000 nM | – |
| CCN1C(=O)[C@H](NC(=O)c2cccc(C(F)(F)F)c2)[C@@H](c2cccc(CNC(=O)/C=C(\C)C(=O)OC)c2)c2cnn(-c3ccccc3)c21 [Compound I-116] | 5.52 to 6.00 | 1000 to 3000 nM | – |
| CCN1C(=O)[C@@H](NC(=O)c2cccc(C(F)(F)F)c2)[C@H](c2cccc(CNC(=O)C3=CCN(C)C3)n2)c2cnn(-c3ccccc3)c21 [Compound I-348] | 5.52 to 6.00 | 1000 to 3000 nM | – |
| CCN1C(=O)[C@H](NC(=O)c2cccc(C(F)(F)F)c2)[C@@H](c2cccc(NC(=O)/C=C/CN(C)C)c2)c2c(CO)nn(-c3ccccc3)c21 (racemic) [Compound I-213, ˜{N}—[˜{rac}-(4˜{S},5˜{R})-7-ethyl-3-(hydroxymethyl)-6-oxo-1-phenyl-4-[3-[[˜{rac}-(˜{E})-4-(dimethylamino)but-2-enoyl]amino]phenyl]-4,5-dihydropyrazolo[3,4-b]pyridin-5-yl]-3-(trifluoromethyl)benzamide] | 6.00 to 6.70 | 1000 to 3000 nM | – |
| C=C(C)S(=O)(=O)Nc1cccc([C@H]2c3c(C)nn(-c4ccccc4)c3N(CC)C(=O)[C@@H]2NC(=O)c2cccc(C(F)(F)F)c2)c1 (racemic) [Compound I-88] | 5.52 to 6.00 | 1000 to 3000 nM | – |
| CCN1C(=O)[C@@H](NC(=O)c2cccc(C(F)(F)F)c2)[C@H](c2cccc(CN(C)C/C=C/C(=O)OC(C)(C)C)c2)c2cnn(-c3ccccc3)c21 [Compound I-238, tert-butyl (E)-4-((3-((4R,5S)-7-ethyl-6-oxo-1-phenyl-5-(3-(trifluoromethyl)benzamido)-4,5,6,7-tetrahydro-1H-pyrazolo[3,4-b]pyridin-4-yl)benzyl)(methyl)amino)but-2-enoate] | 5.52 to 6.00 | 1000 to 3000 nM | – |
| CCN1C(=O)[C@H](NC(=O)c2cccc(C(F)(F)F)c2)[C@@H](c2cccc(NC(=O)C#CCN(C)C)c2)c2cnn(-c3ccccc3)c21 (racemic) [Compound I-132, rac-N-((4R,5S)-4-(3-(4-(dimethylamino)but-2-ynamido)phenyl)-7-ethyl-6-oxo-1-phenyl-4,5,6,7-tetrahydro-1H-pyrazolo[3,4-b]pyridin-5-yl)-3-(trifluoromethyl)benzamide] | 6.00 to 6.70 | 200 to 1000 nM | – |
| CCN1C(=O)[C@@H](NC(=O)c2nccc(C(F)(F)F)n2)[C@H](c2cccc(C(=O)N3CC(F)(F)C[C@H]3C#N)c2)c2cnn(-c3ccccc3)c21 (mixture of isomers) [Compound I-379, N-(rac-(4R,5S)-4-(3-((S)-2-cyano-4,4-difluoropyrrolidine-1-carbonyl)phenyl)-7-ethyl-6-oxo-1-phenyl-4,5,6,7-tetrahydro-1H-pyrazolo[3,4-b]pyridin-5-yl)-4-(trifluoromethyl)pyrimidine-2-carboxamide] | 5.52 to 6.00 | 1000 to 3000 nM | – |
| CCN1C(=O)[C@@H](NC(=O)c2cccc(C(F)(F)F)c2)[C@H](c2ccccc2CNC(=O)/C=C/C(=O)OC)c2cnn(-c3ccccc3)c21 (racemic) [Compound I-67] | 5.52 to 6.00 | 1000 to 3000 nM | – |
| C=C(CN1CCOCC1)C(=O)NCc1cccc([C@H]2c3c(C)nn(-c4ccccc4)c3N(CC)C(=O)[C@@H]2NC(=O)c2cccc(C(F)(F)F)c2)c1 [Compound I-285] | ≥ 6.70 | 1000 to 3000 nM | – |
| CCN1C(=O)[C@@H](NC(=O)c2cccc(C(F)(F)F)c2)[C@H](c2cccc(NC(=O)/C=C(\C)C(=O)OC)c2)c2c(C)nn(-c3ccccc3)c21 (racemic) [Compound I-157] | 6.00 to 6.70 | 1000 to 3000 nM | – |
| C=C(CN1CCC1)C(=O)NCc1cccc([C@@H]2c3c(C)nn(-c4ccccc4)c3N(CC)C(=O)[C@H]2NC(=O)c2cccc(C(F)(F)F)c2)c1 [Compound I-303] | ≥ 6.70 | – | ≥ 6.70 |
| C=C(CN(C)C1COC1)C(=O)NCc1cccc([C@H]2c3c(C)nn(-c4ccccc4)c3N(CC)C(=O)[C@@H]2NC(=O)c2cccc(C(F)(F)F)c2)c1 [Compound I-349] | 6.00 to 6.70 | 1000 to 3000 nM | – |
| CCN1C(=O)[C@H](NC(=O)c2cccc(C(F)(F)F)c2)[C@@H](c2cccc(N(C)C(=O)/C=C/CN(C)C)c2)c2cnn(-c3ccccc3)c21 (racemic) [Compound I-39] | 5.52 to 6.00 | 1000 to 3000 nM | – |
| C=C(CN1CCOCC1)C(=O)NCc1cccc([C@H]2c3cnn(-c4ccccc4)c3N(CC)C(=O)[C@@H]2NC(=O)c2nccc(C(F)(F)F)n2)c1 [Compound I-43] | 5.52 to 6.00 | 1000 to 3000 nM | – |

| SMILES | pIC50 [1] | IC50 [2] | pIC50 [3] |
| --- | --- | --- | --- |
| CCN1C(=O)[C@@H](NC(=O)c2cccc(C(F)(F)F)c2)[C@H](c2cccc(CNC(=O)/C=C(\C)C(=O)OC)c2)c2cnn(-c3ccccc3)c21 [Compound I-73] | 5.52 to 6.00 | 1000 to 3000 nM | – |
| C=C(CN1CCOCC1)C(=O)Nc1cccc([C@H]2c3c(C)nn(-c4ccccc4)c3N(CCO)C(=O)[C@@H]2NC(=O)c2cccc(C(F)(F)F)c2)c1 (racemic) [Compound I-147, rac-N-((4R,5S)-7-(2-hydroxyethyl)-3-methyl-4-(3-(2-(morpholinomethyl)acrylamido)phenyl)-6-oxo-1-phenyl-4,5,6,7-tetrahydro-1H-pyrazolo[3,4-b]pyridin-5-yl)-3-(trifluoromethyl)benzamide] | ≥ 6.70 | ≤ 200 nM | – |
| C=C(CN1CCOCC1)C(=O)NCc1cccc([C@@H]2c3cnn(-c4ccccc4)c3N(CC)C(=O)[C@H]2NC(=O)c2ccn(C(F)F)n2)c1 [Compound I-308] | ≥ 6.70 | 200 to 1000 nM | – |
| C=C(CN(C)CC1COC1)C(=O)NCc1cccc([C@@H]2c3cnn(-c4ccccc4)c3N(CC)C(=O)[C@H]2NC(=O)c2cccc(C(F)(F)F)c2)c1 [Compound I-61] | ≥ 6.70 | – | ≥ 6.70 |
| C=CC(=O)NCc1ccccc1[C@@H]1c2cnn(-c3ccccc3)c2N(CC)C(=O)[C@H]1NC(=O)c1cccc(C(F)(F)F)c1 (racemic) [Compound I-113] | 5.52 to 6.00 | 1000 to 3000 nM | – |
| C=C(CN1CCOCC1)C(=O)N(C)Cc1cccc([C@@H]2c3cnn(-c4ccccc4)c3N(CC)C(=O)[C@H]2NC(=O)c2ccn(C(F)(F)F)n2)c1 [Compound I-295] | ≥ 6.70 | 1000 to 3000 nM | – |
| C/C=C(\CN1CC2CC(C1)O2)C(=O)Nc1cccc([C@@H]2c3cnn(-c4ccccc4)c3N(CC)C(=O)[C@H]2NC(=O)c2nccc(C(F)(F)F)n2)c1 [Compound I-337, N-((4R,5S)-4-(3-((E)-2-((6-oxa-3-azabicyclo[3.1.1]heptan-3-yl)methyl)but-2-enamido)phenyl)-7-ethyl-6-oxo-1-phenyl-4,5,6,7-tetrahydro-1H-pyrazolo[3,4-b]pyridin-5-yl)-4-(trifluoromethyl)pyrimidine-2-carboxamide] | ≥ 6.70 | 200 to 1000 nM | – |
| C=C(C(=O)NCc1cccc([C@@H]2c3cnn(-c4ccccc4)c3N(CC)C(=O)[C@H]2NC(=O)c2ccn(C(F)(F)F)n2)c1)C(C)N1CC2CC(C1)O2 (some centres unmarked) [Compound I-287] | ≥ 6.70 | – | ≥ 6.70 |
| C=C(Cn1cc(F)cn1)C(=O)NCc1cccc([C@@H]2c3cnn(-c4ccccc4)c3N(CC)C(=O)[C@H]2NC(=O)c2nccc(C(F)(F)F)n2)c1 [Compound I-331] | 6.00 to 6.70 | 1000 to 3000 nM | – |
| CCN1C(=O)[C@@H](NC(=O)c2cccc(C(F)(F)F)c2)[C@H](c2cccc(NC(=O)C3=CCCN(C)C3)c2)c2cnn(-c3ccccc3)c21 (racemic) [Compound I-58] | ≥ 6.70 | 1000 to 3000 nM | – |
| CCC(=O)NCc1cccc([C@@H]2c3cnn(-c4ccccc4)c3N(CC)C(=O)[C@H]2NC(=O)c2nccc(C(F)(F)F)n2)c1 [Compound I-358] | 5.52 to 6.00 | 1000 to 3000 nM | – |
| C=C(CN(C)C1COC1)C(=O)N(C)Cc1cccc([C@@H]2c3cnn(-c4ccccc4)c3N(CC)C(=O)[C@H]2NC(=O)c2ccn(C3CC3)n2)c1 [Compound I-239] | – | 1000 to 3000 nM | – |
| C/C=C(\CN1CC2(COC2)C1)C(=O)N(C)Cc1cccc([C@@H]2c3cnn(-c4ccccc4)c3N(CC)C(=O)[C@H]2NC(=O)c2nccc(C(F)(F)F)n2)c1 [Compound I-235] | 5.52 to 6.00 | 1000 to 3000 nM | – |
| C=C(CN1CCC12COC2)C(=O)N(C)Cc1cccc([C@@H]2c3cnn(-c4ccccc4)c3N(CC)C(=O)[C@H]2NC(=O)c2ccn(C3CC3)n2)c1 [Compound I-373] | ≥ 6.70 | 200 to 1000 nM | – |
| C=C(CN1CCN(C2COC2)CC1)C(=O)NCc1cccc([C@@H]2c3cnn(-c4ccccc4)c3N(CC)C(=O)[C@H]2NC(=O)c2nccc(C(F)(F)F)n2)n1 [Compound I-354] | 5.52 to 6.00 | 1000 to 3000 nM | – |
| C/C=C(\CN1CCOCC1)C(=O)NCc1cccc([C@H]2c3cnn(-c4ccccc4)c3N(CC)C(=O)[C@@H]2NC(=O)c2cccc(C(F)(F)F)c2)c1 [Compound I-115] | 5.52 to 6.00 | 1000 to 3000 nM | – |
